Experimental data published in the supplement of paper PMC8617591.

Key:
[1] = system: Mycobacterium tuberculosis Erdman (autoluminescent); assay: AUC25, normalised area under dose response up to IC25 (fraction (0-1)); higher = more potent at low dose
Protocol: (§1)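 DiaMOND equipotent two-drug combination dose responses against autoluminescent M. tuberculosis Erdman in 8 in vitro models. Read-out is OD600, or luminescence for the intracellular and dormancy models, normalised to untreated wells. Hill-fit Einf, AUC25 and GRinf are potency metrics; FIC50 and FIC90 are Loewe-additivity fractional inhibitory concentrations, given as log2 (negative = synergy). Replicates are averaged.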

[2] = system: Mycobacterium tuberculosis Erdman (autoluminescent); assay: Einf, fitted maximum growth inhibition of combination (fraction); higher = stronger maximal inhibition
Protocol: as §1

[3] = system: Mycobacterium tuberculosis Erdman (autoluminescent); assay: FIC90 (Loewe) at 90% inhibition (log2); higher = more antagonistic
Protocol: as §1

[4] = system: Mycobacterium tuberculosis Erdman (autoluminescent); assay: GRinf, maximum normalised growth rate inhibition (unitless (-1 to 1)); higher = less effect (negative = killing)
Protocol: as §1

[5] = system: Mycobacterium tuberculosis Erdman (autoluminescent); assay: FIC50 (Loewe) at 50% inhibition (log2); higher = more antagonistic
Protocol: as §1

CC(=O)NC[C@H]1CN(c2ccc(N3CCOCC3)c(F)c2)C(=O)O1 [linezolid] + CO[C@H]1/C=C/O[C@@]2(C)Oc3c(C)c(O)c4c(O)c(c(/C=N/N5CCN(C6CCCC6)CC5)c(O)c4c3C2=O)NC(=O)/C(C)=C\C=C\[C@H](C)[C@H](O)[C@@H](C)[C@@H](O)[C@@H](C)[C@H](OC(C)=O)[C@@H]1C [rifapentine]
Details	AUC25, [1]	Einf, [2]	FIC50, [5]	FIC90, [3]	GRinf, [4]
in vitro model: acidic pH 5.7, time point: constant (~7 days, model-specific)	0.0817	0.89	0.435	–	-0.248
in vitro model: acidic pH 5.7, time point: terminal (~4-5 doublings, model-specific)	0.0632	0.979	0.277	0.184	-0.205
in vitro model: intracellular J774, time point: constant = terminal	–	0.948	–	-0.637	-0.209

Details	AUC25, [1]	Einf, [2]	FIC50, [5]	FIC90, [3]	GRinf, [4]
in vitro model: butyrate, time point: constant (~7 days, model-specific)	0.0729	0.876	0.227	-0.305	0.113
in vitro model: butyrate, time point: terminal (~4-5 doublings, model-specific)	0.0445	0.934	0.0572	-0.553	0.0794
in vitro model: cholesterol 0.05 mM, time point: constant (~7 days, model-specific)	0.156	0.718	-0.52	–	-0.0866
in vitro model: cholesterol 0.05 mM, time point: terminal (~4-5 doublings, model-specific)	0.107	0.929	-0.0542	0.274	-0.162
in vitro model: cholesterol-high 0.2 mM, time point: constant (~7 days, model-specific)	0.109	0.966	-0.254	-0.688	-0.499
in vitro model: cholesterol-high 0.2 mM, time point: terminal (~4-5 doublings, model-specific)	0.103	1	0.0666	0.0759	-0.762
in vitro model: dormancy (butyrate + nitrate, low O2), time point: constant (~7 days, model-specific)	0.0497	0.908	0.552	0.666	0.107
in vitro model: dormancy (butyrate + nitrate, low O2), time point: terminal (~4-5 doublings, model-specific)	0.0324	0.979	0.585	0.484	-0.13
in vitro model: standard 7H9 glycerol, time point: constant = terminal	0.0541	0.927	0.266	0.154	-0.0203
in vitro model: valerate, time point: constant (~7 days, model-specific)	0.064	0.849	0.063	–	0.119
in vitro model: valerate, time point: terminal (~4-5 doublings, model-specific)	0.0448	0.935	0.198	0.078	0.0691

CC(=O)NC[C@H]1CN(c2ccc(N3CCOCC3)c(F)c2)C(=O)O1 [linezolid] + CO[C@H]1/C=C/O[C@@]2(C)Oc3c(C)c(O)c4c(O)c(c(/C=N/N5CCN(C)CC5)c(O)c4c3C2=O)NC(=O)/C(C)=C\C=C\[C@H](C)[C@H](O)[C@@H](C)[C@@H](O)[C@@H](C)[C@H](OC(C)=O)[C@@H]1C [rifampicin]
Details	AUC25, [1]	Einf, [2]	FIC50, [5]	FIC90, [3]	GRinf, [4]
in vitro model: acidic pH 5.7, time point: constant (~7 days, model-specific)	0.0878	0.902	0.204	–	-0.289
in vitro model: acidic pH 5.7, time point: terminal (~4-5 doublings, model-specific)	0.0656	0.983	0.31	0.0747	-0.211
in vitro model: intracellular J774, time point: constant = terminal	–	0.955	–	-0.706	-0.24

Details	AUC25, [1]	Einf, [2]	FIC50, [5]	FIC90, [3]	GRinf, [4]
in vitro model: butyrate, time point: constant (~7 days, model-specific)	0.078	0.87	0.117	–	0.146
in vitro model: butyrate, time point: terminal (~4-5 doublings, model-specific)	0.0601	0.938	-0.0786	-0.707	0.11
in vitro model: cholesterol 0.05 mM, time point: constant (~7 days, model-specific)	0.154	0.725	-0.622	–	-0.00382
in vitro model: cholesterol 0.05 mM, time point: terminal (~4-5 doublings, model-specific)	0.13	0.935	-0.194	-0.403	-0.175
in vitro model: cholesterol-high 0.2 mM, time point: constant (~7 days, model-specific)	0.101	0.997	-0.0412	-0.846	-0.295
in vitro model: cholesterol-high 0.2 mM, time point: terminal (~4-5 doublings, model-specific)	0.0937	1	0.555	-0.0135	-0.687
in vitro model: dormancy (butyrate + nitrate, low O2), time point: constant (~7 days, model-specific)	0.0704	0.905	0.505	0.314	0.177
in vitro model: dormancy (butyrate + nitrate, low O2), time point: terminal (~4-5 doublings, model-specific)	0.0353	0.969	0.176	0.0537	-0.0276
in vitro model: standard 7H9 glycerol, time point: constant = terminal	0.0527	0.885	0.284	–	0.156
in vitro model: valerate, time point: constant (~7 days, model-specific)	0.0582	0.865	0.191	–	0.0036
in vitro model: valerate, time point: terminal (~4-5 doublings, model-specific)	0.0309	0.945	0.171	-0.411	0.00264

CC(=O)NC[C@H]1CN(c2ccc(N3CCOCC3)c(F)c2)C(=O)O1 [linezolid] + COc1c(N2C[C@@H]3CCCN[C@@H]3C2)c(F)cc2c(=O)c(C(=O)O)cn(C3CC3)c12 [moxifloxacin]
Details	AUC25, [1]	Einf, [2]	FIC50, [5]	FIC90, [3]	GRinf, [4]
in vitro model: acidic pH 5.7, time point: constant (~7 days, model-specific)	0.144	0.799	-0.0102	–	-0.581
in vitro model: acidic pH 5.7, time point: terminal (~4-5 doublings, model-specific)	0.102	0.963	0.872	0.52	-0.271
in vitro model: intracellular J774, time point: constant = terminal	–	0.909	–	0.463	-0.14

Details	AUC25, [1]	Einf, [2]	FIC50, [5]	FIC90, [3]	GRinf, [4]
in vitro model: butyrate, time point: constant (~7 days, model-specific)	0.0878	0.885	0.397	1.22	0.0908
in vitro model: butyrate, time point: terminal (~4-5 doublings, model-specific)	0.0618	0.939	0.323	0.392	0.0886
in vitro model: cholesterol 0.05 mM, time point: constant (~7 days, model-specific)	0.124	0.679	-0.444	–	-0.0664
in vitro model: cholesterol 0.05 mM, time point: terminal (~4-5 doublings, model-specific)	0.137	0.938	0.0528	-0.309	-0.215
in vitro model: cholesterol-high 0.2 mM, time point: constant (~7 days, model-specific)	0.123	0.95	-0.129	0.814	-0.546
in vitro model: cholesterol-high 0.2 mM, time point: terminal (~4-5 doublings, model-specific)	0.125	1	-0.211	0.433	-0.844
in vitro model: dormancy (butyrate + nitrate, low O2), time point: constant (~7 days, model-specific)	0.0537	0.914	0.869	0.521	0.139
in vitro model: dormancy (butyrate + nitrate, low O2), time point: terminal (~4-5 doublings, model-specific)	0.0589	0.964	0.671	0.922	0.061
in vitro model: standard 7H9 glycerol, time point: constant = terminal	0.0831	0.955	0.52	0.972	-0.197
in vitro model: valerate, time point: constant (~7 days, model-specific)	0.11	0.856	0.339	–	0.0191
in vitro model: valerate, time point: terminal (~4-5 doublings, model-specific)	0.0688	0.932	0.36	0.679	0.0477

CC(=O)NC[C@H]1CN(c2ccc(N3CCOCC3)c(F)c2)C(=O)O1 [linezolid] + NC(=O)c1cnccn1 [pyrazinamide]
Details	AUC25, [1]	Einf, [2]	FIC50, [5]	FIC90, [3]	GRinf, [4]
in vitro model: acidic pH 5.7, time point: constant (~7 days, model-specific)	0.0815	0.856	0.463	–	-0.176
in vitro model: acidic pH 5.7, time point: terminal (~4-5 doublings, model-specific)	0.0982	0.985	0.393	-1.67	-0.358
in vitro model: intracellular J774, time point: constant = terminal	–	0.948	–	0.0529	-0.235

Details	AUC25, [1]	Einf, [2]	FIC50, [5]	FIC90, [3]	GRinf, [4]
in vitro model: butyrate, time point: constant (~7 days, model-specific)	0.119	0.897	-0.211	1.73	0.0498
in vitro model: butyrate, time point: terminal (~4-5 doublings, model-specific)	0.0989	0.95	-0.152	0.565	0.0146
in vitro model: cholesterol 0.05 mM, time point: constant (~7 days, model-specific)	0.142	0.724	–	–	-0.126
in vitro model: cholesterol 0.05 mM, time point: terminal (~4-5 doublings, model-specific)	0.141	0.95	0.09	–	-0.256
in vitro model: cholesterol-high 0.2 mM, time point: constant (~7 days, model-specific)	0.114	0.957	0.0387	–	-0.407
in vitro model: cholesterol-high 0.2 mM, time point: terminal (~4-5 doublings, model-specific)	0.115	0.999	0.0483	0.383	-0.83
in vitro model: dormancy (butyrate + nitrate, low O2), time point: constant (~7 days, model-specific)	0.0601	0.878	0.507	0.733	0.236
in vitro model: dormancy (butyrate + nitrate, low O2), time point: terminal (~4-5 doublings, model-specific)	0.0422	0.823	0.0853	1.09	0.182
in vitro model: standard 7H9 glycerol, time point: constant = terminal	0.0807	0.939	0.336	–	-0.0617
in vitro model: valerate, time point: constant (~7 days, model-specific)	0.0877	0.798	-0.432	–	0.131
in vitro model: valerate, time point: terminal (~4-5 doublings, model-specific)	0.0556	0.892	-0.271	1.25	0.137
